Patent US12686704B2, “Procoagulant peptides and use thereof” (RAMBAM MED-TECH LTD., priority 2021, dated 2026)

Legend:
[1] = biological target: lipidated TF, factor VIIa, factor X (Homo sapiens, UniProt P13726); assay: Factor X activation assay of purified proteins (chromogenic substrate); assay type: biochemical; settings: peptides at 5 μg/ml and 10 μg/ml; compared to control; FIG. 1A
Procedure: FIGS. 1A-1C include vertical bar graphs and thromboelastography (TEG) curves, showing that peptide 16 and peptide 16AC increase coagulation. Peptide 16 and 16AC were studied in an assay of purified proteins that included lipidated TF (4 nM), factor VIIa (40 nM), factor X (1.4 μM) and assay buffer. Factor X activated form (Xa) level was studied using a chromogenic substrate (1 mM). […] Bovine factor Xa diluted in the assay buffer was used to generate a standard curve. Without addition of TF (two right columns), no factor Xa was generated. […] (1B) A citrated pooled normal human blood sample (n=3) was left for 4 hours at room temperature in order to expose TF in bloods cells. Following this period, the peptides 16 and 16AC were added (5 μg/ml) along with calcium. […] Representative TEG curves are shown. (1C) The study presented in FIG. 1B was repeated 3 times with different pooled plasma. […] Peptide 16 (non-modified); peptide 16 comprising a C-terminal amid group (16A); peptide 16 comprising an N-terminal acetyl group (16C); and peptide 16 comprising a C-terminal amid group and an N-terminal acetyl group (16AC). In 1B: for control—SP min=11.2; R min=12.8; K min=3.8, Angle deg=52.0; and MA mm=47.9, for Peptide 16—SP min=5.2; R min=6.4; K min=2.8, Angle deg=63.3; and MA mm=50.4, and for Peptide 16AC—SP min=4.7; R min=5.6; K min=2.5, Angle deg=63.1; and MA mm=53.8.
Peptides 16, 16C, 16A and 16AC were studied in an assay of purified proteins that included lipidated TF (0.004 μM), factor VIIa (0.04 μM), factor X (1.4 μM) and assay buffer. Factor X activated form (Xa) level was studied using a chromogenic substrate (1 mM). […] Bovine factor Xa diluted in the assay buffer was used to generate a standard curve. Without addition of TF (two right columns), no factor Xa was generated.

[2] = test system: Hemophilic mice (VIII-KO mice); assay: Mouse-tail bleeding time model in hemophilic mice; assay type: in vivo; settings: for bleeding time: 150, 225, 300, 375 μg/kg sub-cutis at the flank or topically on the tail, dose dependent, vs PBS control
Procedure: FIGS. 3A-3D include vertical bar graphs showing that modified heparanase procoagulant peptides of the invention decrease bleeding in hemophilic mice. Hemophilic mice (VIII-KO mice; C57BL/6 background, strain name B6;129S4-F8tm1Kaz/J) were studied. (3A) Peptides 16 or 16AC were injected subcutaneously at the flank in doses 150, 225, 300, 375 μg/kg. A mouse-tail bleeding time model was performed. The peptides were dissolved in phosphate-buffered saline (PBS). Control (0) group was injected with the vehicle phosphate buffered saline (PBS). (3D) is identical to (3A) with the exception that peptide 16 C […] and peptide 16A […] were also administered in the disclosed doses. In a similar study, the peptides were topically applied on the tail immediately following the incision of the tail at a rate of a drop every 5 seconds (3B). […] Mann-Whitney U test was used. Results represent mean±SD. *p<0.05.
Hemophilic mice (VIII-KO mice; C57BL/6 background, strain name B6;129S4-F8tm1Kaz/J) were studied. Peptides 16 or 16AC were injected sub-cutis at the flank in doses 150, 225, 300, 375 μg/kg. A mouse-tail bleeding time model was performed. The peptides were dissolved in phosphate-buffered saline (PBS). Control (0) group was injected with the vehicle phosphate buffered saline (PBS) (FIGS. 3A and 3D). In a similar study, the peptides were topically applied on the tail immediately following the incision of the tail at a rate of a drop every 5 seconds (FIG. 3B).

Sequence of lipidated TF, factor VIIa, factor X (P13726 33-295): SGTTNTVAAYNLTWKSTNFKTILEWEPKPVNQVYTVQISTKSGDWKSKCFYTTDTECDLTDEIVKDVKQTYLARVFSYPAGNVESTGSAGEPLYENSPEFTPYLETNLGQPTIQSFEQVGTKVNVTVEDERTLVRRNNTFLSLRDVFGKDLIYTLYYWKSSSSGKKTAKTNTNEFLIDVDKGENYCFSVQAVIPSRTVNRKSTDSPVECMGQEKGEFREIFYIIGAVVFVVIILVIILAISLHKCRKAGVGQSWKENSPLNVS
Sequence of lipidated TF, factor VIIa, factor X (P08709 61-212 partner limits assumed): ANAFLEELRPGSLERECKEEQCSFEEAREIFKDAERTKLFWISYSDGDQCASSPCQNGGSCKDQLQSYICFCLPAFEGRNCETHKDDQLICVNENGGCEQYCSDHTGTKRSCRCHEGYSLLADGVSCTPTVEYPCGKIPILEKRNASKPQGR
Sequence of lipidated TF, factor VIIa, factor X (P08709 213-466 partner limits assumed): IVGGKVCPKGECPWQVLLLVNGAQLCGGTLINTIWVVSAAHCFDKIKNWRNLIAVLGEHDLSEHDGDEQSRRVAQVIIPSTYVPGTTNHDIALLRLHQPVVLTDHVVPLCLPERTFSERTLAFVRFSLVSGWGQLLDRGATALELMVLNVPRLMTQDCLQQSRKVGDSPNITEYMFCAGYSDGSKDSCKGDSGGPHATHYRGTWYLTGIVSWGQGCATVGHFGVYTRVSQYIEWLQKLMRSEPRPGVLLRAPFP

| Substance | activation of factor X (factor Xa level) [1] | bleeding time [2] | bleeding time reduction, comparison between peptides ([2]; subcutaneous 150-375 μg/kg, FIG. 3D) |
| --- | --- | --- | --- |
| GSKRRKLRVYLHCT [Peptide 16, peptide comprising the procoagulant domain of heparanase, non-modified] | significantly increased activation of factor X compared to control | significant decrease in bleeding time |  |
| acetyl-GSKRRKLRVYLHCT-amid (Ac-GSKRRKLRVYLHCT-NH2) [Peptide 16AC, peptide 16 comprising a C-terminal amid group and an N-terminal acetyl group] | significantly increased activation of factor X compared to control | significant decrease in bleeding time | improved bleeding reduction |
